Experimental data as given in US20160039767A1, “PYRAZOLE DERIVATIVES AS PRMT1 INHIBITORS AND USES THEREOF” (EPIZYME, INC., priority 2013, published 2016).
Where two headings read alike, the source gives them in different places.

What was measured:
PRMT1 = target: T1, PRMT1 (Homo sapiens, UniProt Q99873); assay: PRMT1 Biochemical Assay (3H-SAM Flashplate, histone H4 peptide substrate); details: Biochemical IC50 (Numerical, μM) PRMT1, single experiment or average of multiple experiments, Table 2a
T1 construct: GST-tagged PRMT1; made in house; host or cells: High Five insect cells (baculovirus, pFastBacI)
T1 sequence (Q99873 with tags, fused parts or gaps): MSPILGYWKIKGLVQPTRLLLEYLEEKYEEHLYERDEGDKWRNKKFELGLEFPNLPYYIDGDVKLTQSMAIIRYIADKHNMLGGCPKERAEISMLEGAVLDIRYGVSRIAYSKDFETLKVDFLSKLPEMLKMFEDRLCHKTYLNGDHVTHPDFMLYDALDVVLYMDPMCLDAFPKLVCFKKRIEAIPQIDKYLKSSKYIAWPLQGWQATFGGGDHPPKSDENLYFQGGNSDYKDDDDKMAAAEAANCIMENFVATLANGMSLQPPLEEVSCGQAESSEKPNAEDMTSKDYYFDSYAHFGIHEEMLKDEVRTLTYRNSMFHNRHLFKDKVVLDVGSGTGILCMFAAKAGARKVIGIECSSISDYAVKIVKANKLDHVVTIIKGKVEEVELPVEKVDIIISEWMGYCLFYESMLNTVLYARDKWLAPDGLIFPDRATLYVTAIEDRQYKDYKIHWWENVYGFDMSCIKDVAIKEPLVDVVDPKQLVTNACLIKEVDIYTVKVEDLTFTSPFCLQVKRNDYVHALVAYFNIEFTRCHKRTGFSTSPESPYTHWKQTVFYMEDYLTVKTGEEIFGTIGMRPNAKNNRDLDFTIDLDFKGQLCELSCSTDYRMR
From the text: S-adenosylmethionine (SAM), S-adenosylhomocysteine (SAH), bicine, Tween20, dimethylsulfoxide (DMSO), bovine skin gelatin (BSG), and Tris(2-carboxyethyl)phosphine hydrochloride solution (TCEP) were purchased from Sigma-Aldrich at the highest level of purity possible. ^3H-SAM was purchase from American Radiolabeled Chemicals with a specific activity of 80 Ci/mmol. 384-well streptavidin Flashplates were purchased from PerkinElmer.
Recombinant baculovirus were generated according to Bac-to-Bac kit instructions (Life Technologies). Protein over-expression was accomplished by infecting exponentially growing High Five insect cell culture at 1.5×10^6 cell/ml with 1:100 ratio of virus. Infections were carried out at 27° C. for 48 hours, harvested by centrifugation, and stored at −80° C. for purification.
GST-tagged PRMT1 was eluted with 50 mM Tris, 2 mM glutathione, pH 7.8, dialysed in buffer A and concentrated to 1 mg/mL.
General Procedure for PRMT1 Enzyme Assays on Peptide Substrates.
The assays were all performed in a buffer consisting of 20 mM Bicine (pH=7.6), 1 mM TCEP, 0.005% BSG, and 0.002% Tween 20, prepared on the day of use. […] DMSO (1 ul) was added to Columns 11, 12, 23, 24, rows A-H for the maximum signal control and 1 ul of SAH, a known product and inhibitor of PRMT1, was added to columns 11, 12, 23, 24, rows I-P for the minimum signal control. A cocktail (40 ul) containing the PRMT1 enzyme was added by Multidrop Combi (Thermo-Fisher). The compounds were allowed to incubate with PRMT1 for 30 min at room temperature, then a cocktail (10 ul) containing SAM and peptide was added to initiate the reaction (final volume=51 ul). […] The assays were stopped by the addition of non-radiolabeled SAM (10 ul) to a final concentration of 300 uM, which dilutes the ^3H-SAM to a level where its incorporation into the peptide substrate is no longer detectable. […] The plates were then read in a PerkinElmer TopCount plate reader to measure the quantity of ^3H-labeled peptide bound to the Flashplate surface, measured as disintegrations per minute (dpm) or alternatively, referred to as counts per minute (cpm).
Where dpm=disintegrations per minute, cmpd=signal in assay well, and min and max are the respective minimum and maximum signal controls.
Where top and bottom are the normally allowed to float, but may be fixed at 100 or 0 respectively in a 3-parameter fit. The Hill Coefficient normally allowed to float but may also be fixed at 1 in a 3-parameter fit. Y is the % inhibition and X is the compound concentration.

RKO cells = assay: RKO Methylation Assay (In Cell Western for mono-methyl arginine and DNA content); format: cell-based; details: Homo sapiens
From the text: RKO adherent cells were purchased from ATCC (American Type Culture Collection), Manassas, Va., USA. DMEM/Glutamax medium, penicillin-streptomycin, heat inactivated fetal bovine serum, 0.05% trypsin and D-PBS were purchased from Life Technologies, Grand Island, N.Y., USA. Odyssey blocking buffer, 800CW goat anti-rabbit IgG (H+L) antibody, and Licor Odyssey infrared scanner were purchased from Licor Biosciences, Lincoln, Nebr., USA. Mono-methyl arginine antibody was purchased from Cell Signaling Technology, Danvers, Mass., USA. Methanol was purchased from VWR, Franklin, Mass., USA. 10% Tween 20 was purchased from KPL, Inc., Gaithersburg, Md., USA. DRAQ5 was purchased from Biostatus Limited, Leicestershire, UK.
RKO adherent cells were maintained in growth medium (DMEM/Glutamax medium supplemented with 10% v/v heat inactivated fetal bovine serum and 100 units/mL penicillin-streptomycin) and cultured at 37° C. under 5% CO2.
Cell Treatment, in Cell Western (ICW) for Detection of Mono-Methyl Arginine and DNA Content.
Compound (100 nL) from a 96-well source plate was added directly to 384 well cell plate. Plates were incubated at 37° C., 5% CO2 for 72 hours. After three days of incubation, plates were brought to room temperature outside of the incubator for ten minutes and blotted on paper towels to remove cell media. 50 μL of ice cold 100% methanol was added directly to each well and incubated for 30 min at room temperature. After 30 min, plates were transferred to a Biotek EL406 plate washer and washed 2 times with 100 μL per well of wash buffer (1×PBS). Next 60 μL per well of Odyssey blocking buffer (Odyssey Buffer with 0.1% Tween 20 (v/v)) were added to each plate and incubated 1 hour at room temperature. Blocking buffer was removed and 20 μL per well of primary antibody was added (mono-methyl arginine diluted 1:200 in Odyssey buffer with 0.1% Tween 20 (v/v)) and plates were incubated overnight (16 hours) at 4° C. Plates were washed 5 times with 100 µL per well of wash buffer. Next 20 μL per well of secondary antibody was added (1:200 800CW goat anti-rabbit IgG (H+L) antibody, 1:1000 DRAQ5 (Biostatus limited) in Odyssey buffer with 0.1% Tween 20 (v/v)) and incubated for 1 hour at room temperature. The plates were washed 5 times with 100 μL per well wash buffer then 2 times with 100 μL per well of water. Plates were allowed to dry at room temperature then imaged on the Licor Odyssey machine which measures integrated intensity at 700 nm and 800 nm wavelengths. Both 700 and 800 channels were scanned.
First, the ratio for each well was determined by:
Each plate included fourteen control wells of DMSO only treatment (minimum activation) as well as fourteen control wells for maximum activation treated with 20 μM of a reference compound. The average of the ratio values for each control type was calculated and used to determine the percent activation for each test well in the plate. Reference compound was serially diluted three-fold in DMSO for a total of nine test concentrations, beginning at 20 μM. Percent activation was determined and EC30 curves were generated using triplicate wells per concentration of compound.

[1] = RKO, 72 h, read-out: In Cell Western data (Numerical, μM) EC30
[2] = RKO, 72 h, read-out: In Cell Western data EC30
[3] = RKO cells, 72 hours, mono-methyl arginine, class symbols, Table 3, read-out: In Cell Western data EC30
[4] = RKO cells, 72 hours, mono-methyl arginine, single experiment or average of multiple experiments, Table 3a, read-out: In Cell Western data (Numerical, μM) EC30

Row | SMILES | IC50 (PRMT1) [µM] | EC30 (RKO cells; [1]) [µM] | EC30 (RKO cells; [2]) [µM] | EC30 (RKO cells; [3]) [µM] | EC30 (RKO cells; [4]) [µM]
1 | CNCCN(C)Cc1c[nH]nc1-c1cccc(C(F)(F)F)c1 [Compound 1] | 0.123 | – | – | – | –
2 | CN(CCN)Cc1c[nH]nc1-c1cc(C(F)(F)F)cc(C(F)(F)F)c1 [Compound 2] | 0.389 | – | – | – | –
3 | CN(CCN)Cc1c[nH]nc1-c1ccc(Cl)c(C(F)(F)F)c1 [Compound 3] | 0.0232 | – | – | – | –
4 | CN(CCN)Cc1c[nH]nc1-c1ccc(F)c(C(F)(F)F)c1 [Compound 4] | 0.0572 | – | – | – | –
5 | CC(C)Oc1ccc(-c2n[nH]cc2CN(C)CCN)cc1C(F)(F)F [Compound 5] | 0.00445 | 0.305 | < 3 | – | –
6 | CC(C)Oc1cc(-c2n[nH]cc2CN(C)CCN)cc(C(F)(F)F)c1 [Compound 6] | 0.0687 | 10.8 | 3.01 to 12 | – | –
7 | CN(CCN)Cc1n[nH]cc1-c1cc(C(F)(F)F)cc(C(F)(F)F)c1 [Compound 7] | 2.6 | – | – | – | –
8 | CC(C)Oc1ccc(-c2c[nH]nc2CN(C)CCN)cc1C(F)(F)F [Compound 8] | 0.0165 | – | – | < 3 | 2.69
9 | CNCCN(C)Cc1c[nH]nc1-c1ccc(OCCC(C)C)c(C(F)(F)F)c1 [Compound 9] | – | 1.77 | < 3 | – | –
10 | CNCCN(C)Cc1c[nH]nc1-c1ccc(OCC(C)C)c(C(F)(F)F)c1 [Compound 10] | 0.00451 | 0.537 | < 3 | – | –
11 | CCCOc1ccc(-c2n[nH]cc2CN(C)CCNC)cc1C(F)(F)F [Compound 11] | 0.00462 | 0.558 | < 3 | – | –
12 | CNCCN(C)Cc1c[nH]nc1-c1ccc(OCCCOC)c(C(F)(F)F)c1 [Compound 13] | 0.0108 | 0.567 | < 3 | – | –
13 | CNCCN(C)Cc1c[nH]nc1-c1ccc(OCCOC)c(C(F)(F)F)c1 [Compound 14] | 0.00554 | 0.383 | < 3 | – | –
14 | CNCCN(C)Cc1n[nH]cc1-c1ccc(OCC(C)C)c(C(F)(F)F)c1 [Compound 18] | 0.00988 | – | – | < 3 | 2.69
15 | CNCCN(C)Cc1n[nH]cc1-c1ccc(OCCCOC)c(C(F)(F)F)c1 [Compound 20] | 0.0553 | – | – | < 3 | 2.04
16 | CNCCN(C)Cc1n[nH]cc1-c1ccc(OCCOC)c(C(F)(F)F)c1 [Compound 21] | 0.0328 | – | – | < 3 | 0.812
17 | CN(CCN)Cc1c[nH]nc1-c1ccc(Oc2ccccc2)c(C(F)(F)F)c1 [Compound 23] | 0.00301 | 1.51 | < 3 | – | –
18 | CNCCN(C)Cc1c[nH]nc1-c1cc(Cl)c(OC(C)C)c(C(F)(F)F)c1 [Compound 25] | 0.0101 | 0.983 | < 3 | – | –
19 | CN(CCN)Cc1n[nH]cc1-c1ccc(Oc2ccccc2)c(C(F)(F)F)c1 [Compound 26] | 0.00917 | – | – | – | –
20 | CCCOc1ccc(-c2c[nH]nc2CN(C)CCNC)cc1C(F)(F)F [Compound 28] | 0.00659 | – | – | < 3 | 1.1
21 | CNCCN(C)Cc1n[nH]cc1-c1cc(C(O)C(C)C)cc(C(F)(F)F)c1 (centres unmarked) [Compound 32] | > 1 | – | – | – | –
22 | CNCCN(C)Cc1n[nH]cc1-c1cc(Cl)c(OC(C)C)c(C(F)(F)F)c1 [Compound 33] | 0.0441 | – | – | – | –
23 | CNCCN(C)Cc1c[nH]nc1-c1cc(OCCc2ccccc2)cc(C(F)(F)F)c1 [Compound 42] | – | 2.7 | < 3 | – | –
24 | CNCCN(C)Cc1c[nH]nc1-c1cc(OCCOC)c(Cl)c(C(F)(F)F)c1 [Compound 55] | 0.163 | – | – | – | –
25 | COCCOc1cc(-c2n[nH]cc2CN(C)CCN)cc(C(F)(F)F)c1Cl [Compound 56] | 0.194 | – | – | – | –
26 | CNCCN(C)Cc1c[nH]nc1-c1cc(OCCCOC)c(Cl)c(C(F)(F)F)c1 [Compound 57] | 0.0318 | – | – | – | –

Continued, in another order:

Row | IC50 (PRMT1) [µM] | SMILES | EC30 (RKO cells; [1]) [µM] | EC30 (RKO cells; [2]) [µM] | EC30 (RKO cells; [3]) [µM] | EC30 (RKO cells; [4]) [µM]
27 | 0.00704 | CNCCN(C)Cc1c[nH]nc1-c1cc(OCCC(C)C)cc(C(F)(F)F)c1 [Compound 12] | – | – | < 3 | 1.44
28 | 0.0162 | CNCCN(C)Cc1c[nH]nc1-c1cc(OCC(C)C)cc(C(F)(F)F)c1 [Compound 15] | – | – | – | –
29 | 0.0204 | CNCCN(C)Cc1c[nH]nc1-c1cc(OCCOC)cc(C(F)(F)F)c1 [Compound 16] | – | – | < 3 | 2.24
30 | 0.0275 | CCCOc1cc(-c2n[nH]cc2CN(C)CCNC)cc(C(F)(F)F)c1 [Compound 19] | – | – | 3.01 to 12 | 5.07
31 | 0.0189 | CNCCN(C)Cc1n[nH]cc1-c1cc(OCCC(C)C)cc(C(F)(F)F)c1 [Compound 22] | – | – | – | –
32 | 0.0229 | CNCCN(C)Cc1c[nH]nc1-c1cc(OCCCOC)cc(C(F)(F)F)c1 [Compound 24] | – | – | 3.01 to 12 | 4.02
33 | 0.139 | CNCCN(C)Cc1n[nH]cc1-c1cc(OCCCOC)cc(C(F)(F)F)c1 [Compound 27] | – | – | – | –
34 | 0.0663 | CNCCN(C)Cc1n[nH]cc1-c1cc(OCC(C)C)cc(C(F)(F)F)c1 [Compound 29] | – | – | – | –
35 | 0.17 | CCCOc1cc(-c2c[nH]nc2CN(C)CCNC)cc(C(F)(F)F)c1 [Compound 31] | – | – | – | –
36 | 0.0259 | CNCCN(C)Cc1c[nH]nc1-c1cc(OC2CCCCC2)cc(C(F)(F)F)c1 [Compound 39] | – | – | – | –
37 | 0.152 | CC(C)CCOc1cc(-c2n[nH]cc2CN(C)CCN)cc(C(F)(F)F)c1Cl [Compound 40] | – | – | – | –
38 | 0.0103 | CNCCN(C)Cc1c[nH]nc1-c1cc(OCC2CCCC2)cc(C(F)(F)F)c1 [Compound 45] | – | – | – | –
39 | 0.299 | CNCCN(C)Cc1c[nH]nc1-c1cc(Oc2cncnc2)cc(C(F)(F)F)c1 [Compound 53] | – | – | – | –
40 | 0.146 | CNCCN(C)Cc1c[nH]nc1-c1cc(OCCC(C)C)c(Cl)c(C(F)(F)F)c1 [Compound 54] | – | – | – | –
41 | 0.0576 | CNCCN(C)Cc1c[nH]nc1-c1cc(OCC(F)(F)F)cc(C(F)(F)F)c1 [Compound 60] | – | – | – | –
42 | 0.0165 | CNCCN(C)Cc1c[nH]nc1-c1cc(OCCCC(=O)OC)cc(C(F)(F)F)c1 [Compound 61] | – | – | – | –
43 | 0.0136 | CNCCN(C)Cc1c[nH]nc1-c1cc(CCC(C)C)cc(C(F)(F)F)c1 [Compound 62] | – | – | – | –
44 | 0.0114 | CC(C)CCc1cc(-c2n[nH]cc2CN(C)CCN)cc(C(F)(F)F)c1 [Compound 63] | – | – | – | –
